In patent US8883763B2 (Universite Joseph Fourier, priority 2010, dated 2014):

Columns and labels:
[1] = tested on: bovine brain tubulin; experiment: In vitro tubulin polymerization test (turbidimetry at 350 nm); assay type: biochemical; details: molecules at 50 μM, calculated at t=3000 s, DMSO control = 100%
Method: Tubulin was purified from bovine brain using the polymerization-depolymerization process described by (Castoldi M and Popov A V. Protein Expr Purif. 2003, 32(1): pp 83-8).
The in vitro tubulin polymerization tests (at 50 μM) were carried out in the presence of GTP 1 mM in BRB80 buffer (80 mM K-PIPES pH 6.8, 1 mM MgCl2, 1 mM EGTA) at 37° C. The tests were carried out in 96-microwell plates (half-wells) (Costar plates, Corning #3695), in triplicate with a final volume of 70 μl. Tubulin assembly was carried out in the presence of compound 6 or its analogues (all used at a concentration of 50 μM) and was monitored by turbidimetry measurement at 350 nm using a spectrophotometer (Spectramax More, Molecular Devices).
Measurement of the effect of a molecule on polymerization was calculated at t=3000 s taking the value of the control at the same time as being equal to 100%.

[2] = tested on: HeLa cells; experiment: Indirect immunofluorescence: effect on HeLa cells (mitotic arrest, microtubule depolymerization); assay type: cell-based, human; parameters: key to Effect on Hela at 25 μM / Effect on Hela at 100 μM / Effect on Hela at 50 and 100 μM / Effect on Hela at 50 μM: —: −: no activity on the cells at 25 μM (if there is an effect at high concentrations, this is specified in the table).; *: weak activity (MA and/or slight depolymerization of the MTs and/or slight inhibition of proliferation),; **: average activity (MA and/or moderate depolymerization of the MTs and/or moderate inhibition of proliferation),; ***: strong activity (MA and/or pronounced depolymerization of the MTs and/or pronounced inhibition of proliferation),; ****: very strong activity (MA and/or very pronounced depolymerization of the MTs and/or strong inhibition of proliferation); details: 24 hours; for Effect on Hela at 25 μM: mitotic index and/or depolymerization of the MTs
Method: The cells were cultured on slides in 24-well plates and incubated for 24 hours with molecule 6 at different concentrations from 1 to 10 μM.
Corresponding quantities of DMSO were added to the culture medium in the control wells.
The cells were fixed in a solution of PBS with 4% paraformaldehyde (PFA) and 0.1% glutaraldehyde (GA), for 15 minutes and centrifuged at 300 g for the last 10 minutes of the fixing. The slides were rinsed in PBS and the free aldehyde groups were reduced by two successive 5-minute incubations in PBS containing 1 mg/ml of NaBH4.
After one washing with PBS then another with PBST (PBS with 0.5% triton-X-100), the cells are incubated for 30 minutes at ambient temperature with anti α-tubulin monoclonal antibody solution (DM1A clone, Sigma # T6199) diluted to 1:200 in PBST. After 3 10-minute washings with PBST, the cells are incubated for 30 minutes at ambient temperature in a solution of goat anti-mouse polyclonal antibodies coupled with Alexa 488 (1:1000, Molecular Probes # A-11029) and phalloidin coupled with Texas red to label the actin (1:2000, Molecular Probes # T7471), in PBST also containing Hoechst 33258 (1 μg/ml) for labelling the DNA. After 3 10-minute washings in PBST, the slides are mounted on plates in Fluorsave™ mounting medium (Calbiochem #345789) and are observed and analyzed using an Axiovert 200M inverted fluorescence microscope (Zeiss®). The images are produced with a Plan-Apochromat 63× oil objective (Zeiss®) by means of a Coolsnap HQ camera (Roper Scientifics®) and with Metamorph acquisition software (Universal Imaging™ Corporation).
In order to evaluate the effect of the analogues of compound 6 on PHFs and HeLa cells, the immunofluorescence technique described above was used and adapted to a 96-well dish format. The cells were seeded in glass-bottomed 96-well dishes and incubated for 24 hours in the presence of different concentrations of molecules from 100 μM to 50 nM. And in the same way as described above, the cells were fixed and immunolabelled. Analysis of the phenotypes as well as counting the mitotic cells were carried out with the same microscope but using a ×40 objective (Olympus). The molecules were compared with each other with respect to the mitotic arrest induced on PHFs and HeLa cells at 25 and 0.3 μM.
The mitotic index and/or the depolymerization of the MTs were evaluated at 25 μM.

[3] = target: T1, PP1α (PP1CA) (Oryctolagus cuniculus, UniProt P62139); experiment: Protein phosphatase test (PP1 activity, DiFMUP fluorescent substrate); assay type: biochemical; details: for IC50: PP1CA at 80 mU, fluorescent substrate (50 μM), molecules from 50 μM to 50 nM, read-out: PP1 Inhibition IC50
T1 construct: purchased New England Biolabs P0754
Method: FIG. 13 presents the graph showing the inhibition of the PP1Cα activity by compound 6 in vitro. PP1Cα (New England Biolabs, 30 mU/well) was incubated in the presence of compound 6 at different concentrations and a fluorescent substrate, diFMUP.
Determination of the 1050 was carried out with PP1CA at 80 mU in the presence of a fluorescent substrate
(50 μM) and different concentrations of molecules from 50 μM to 50 nM.
For the activity tests, PP1α (New England Biolabs # P0754) was used at a final concentration of 30 mU or 80 mU for the screening of all the analogues. 6,8-difluoro-4-methylumbelliferyl phosphate (DiFMUP, Invitrogen # D6567) was used as fluorescent substrate at a concentration of […]. All the tests were carried out in a final volume of 100 μl, at 37° C. in 96-microwell plates (Greiner #655096).
Compound 6, combretastatin A4 (CA-4) as well as all the analogues were diluted in 50 μl of PP1 buffer (100 mM Tris-HCl, pH 7.5, 4 mM DTT, 0.2 mM EDTA, 0.5 mM MnCl2) from 50 μM to 50 nM. Corresponding quantities of DMSO were added to control wells. PP1α (30 or 80 mU in 30 μl of PP1 buffer) was added to each well. After incubating for 15 minutes at AT, the substrate was added (in 20 μl of PP1 buffer). After incubating for 20 minutes at 37° C., the fluorescence was measured in a plate fluorometer at 355-460 nm in order to assay the phosphatase activity. The test was carried out three times in duplicate for each condition.

[4] = tested on: HMEC cells; experiment: Proliferation of HMEC cells (GI50); assay type: cell-based; details: Homo sapiens, 120 h, 50 μM to 1 nM for 5 days
Method: The HMECs were seeded at 10% confluence and incubated with the molecules at different concentrations (from 50 μM to 1 nM) for 5 days. The GI50 (50% Growth Inhibition) defines the concentration inducing a 50% reduction in proliferation with respect to the control.

T1 sequence (P62139 whole entry): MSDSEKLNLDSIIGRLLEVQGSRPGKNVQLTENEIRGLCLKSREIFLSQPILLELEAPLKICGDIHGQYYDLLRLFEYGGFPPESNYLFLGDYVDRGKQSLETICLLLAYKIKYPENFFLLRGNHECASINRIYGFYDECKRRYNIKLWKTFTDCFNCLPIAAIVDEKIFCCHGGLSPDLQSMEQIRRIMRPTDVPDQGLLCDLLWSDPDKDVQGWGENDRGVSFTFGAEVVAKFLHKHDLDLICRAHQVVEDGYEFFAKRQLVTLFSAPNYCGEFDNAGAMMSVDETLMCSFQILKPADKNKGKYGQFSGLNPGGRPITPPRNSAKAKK

Structure (SMILES)	Tubulin polymerization inhibition [1]	Effect on Hela at 25 μM [2]	Effect on Hela at 50 and 100 μM ([2]; 50 and 100 μM)	IC50 [3]	GI50 [4]	Effect on Hela at 100 μM ([2]; 100 μM)	inhibition of PP1Cα activity in vitro ([3]; PP1Cα 30 mU/well, diFMUP, negative control)	Effect on Hela at 50 μM ([2]; 50 μM)
COc1ccc2c(NC=O)c(-c3ccccc3)[nH]c(=O)c2c1 [Compound 9, N-(7-Methoxy-1-oxo-3-phenyl-1,2-dihydroisoquinoline-4-yl)methanamide]	— ((−) signifies that the molecule induces little or no tubulin assembly inhibition in vitro: 0+ or − −5% of the DMSO control.)	—	**	> 50 µM	25 to 50 µM			
COc1ccc(-c2[nH]c(=O)c3cc(OC)ccc3c2-c2ccc(OC)cc2)cc1 [Compound 5]	+++ ((+++) signifies that the molecule induces tubulin assembly inhibition in vitro of more than 50% with respect to the DMSO control.)	***		> 50 µM	0.1 to 1 µM			
O=c1[nH]c(-c2ccc(O)cc2)c(Cl)c2ccc(O)cc12 [Compound 56, 4-Chloro-7-hydroxy-3-(4-hydroxyphenyl)isoquinoline-1(2H)-one]	— ((−) signifies that the molecule induces little or no tubulin assembly inhibition in vitro: 0+ or − −5% of the DMSO control.)	—		10 to 24 µM	> 50 µM	*		
COc1ccc(-c2c([N+](=O)[O-])c3ccc(OC)cc3c(=O)n2C)cc1 [Compound 66, 7-Methoxy-3-(4-methoxyphenyl)-2-methyl-4-nitroisoquinoline-1(2H)-one]	+ ((+) signifies that the molecule induces tubulin assembly inhibition in vitro comprised between 6 and 25% of the DMSO control.)	*		≤ 9 µM	1 to 25 µM			
COc1ccc(-c2[nH]c(=O)c3cc(OC)ccc3c2Cl)cc1 [Compound 14, 4-Chloro-7-methoxy-3-(4-methoxyphenyl)isoquinoline-1(2H)-one]	+++ ((+++) signifies that the molecule induces tubulin assembly inhibition in vitro of more than 50% with respect to the DMSO control.)	—		> 50 µM	25 to 50 µM			
COc1ccc(COc2nc(-c3ccc(OC)cc3)c(I)c3ccc(OC)cc23)cc1 [Compound 69, 4-Iodo-7-methoxy-1-(4-methoxybenzyloxy)-3-(4-methoxyphenyl)isoquinoline]	+ ((+) signifies that the molecule induces tubulin assembly inhibition in vitro comprised between 6 and 25% of the DMSO control.)	—		25 to 50 µM	25 to 50 µM			
COc1ccc(-c2cc3ccc(OC)cc3c(=O)n2C)cc1 [Compound 65, 7-Methoxy-3-(4-methoxyphenyl)-2-methylisoquinoline-1(2H)-one]	+ ((+) signifies that the molecule induces tubulin assembly inhibition in vitro comprised between 6 and 25% of the DMSO control.)	*		≥ 50 µM	1 to 25 µM			
COc1ccc2c([N+](=O)[O-])c(-c3ccc(O)cc3)[nH]c(=O)c2c1 [Compound 72, 3-(4-hydroxyphenyl)-7-methoxy-4-nitroisoquinolin-1(2H)-one]	++ ((++) signifies that the molecule induces tubulin assembly inhibition in vitro comprised between 26 and 50% of the DMSO control.)	****		10 to 24 µM	0.1 to 1 µM			
O=c1[nH]c(-c2ccc(O)cc2)cc2ccc(O)cc12 [Compound 57, 7-Hydroxy-3-(4-hydroxyphenyl)isoquinoline-1(2H)-one]	+ ((+) signifies that the molecule induces tubulin assembly inhibition in vitro comprised between 6 and 25% of the DMSO control.)	***		> 50 µM	1 to 25 µM			
COc1ccc2c([N+](=O)[O-])c(-c3ccc(C#CC(C)(C)C)cc3)[nH]c(=O)c2c1 [Compound 60, 3-(4-(3,3-dimethylbut-1-ynyl)phenyl)-7-methoxy-4-nitroisoquinolin-1(2H)-one]	— ((−) signifies that the molecule induces little or no tubulin assembly inhibition in vitro: 0+ or − −5% of the DMSO control.)	***		≤ 9 µM	1 to 25 µM			
COc1ccc(-c2[nH]c(=O)c3cc(OC)ccc3c2N)cc1 [Compound 1, 4-amino-7-methoxy-3-(4-methoxyphenyl)isoquinolin-1(2H)-one]	— ((−) signifies that the molecule induces little or no tubulin assembly inhibition in vitro: 0+ or − −5% of the DMSO control.)	***		> 50 µM	1 to 25 µM			
COc1ccc2c([N+](=O)[O-])c(-c3ccc(C#CC(C)(C)O)cc3)[nH]c(=O)c2c1 [Compound 59]	— ((−) signifies that the molecule induces little or no tubulin assembly inhibition in vitro: 0+ or − −5% of the DMSO control.)	—		25 to 50 µM	> 50 µM			
COc1ccc2c([N+](=O)[O-])c(-c3ccc(OC(=O)OC(C)(C)C)cc3)[nH]c(=O)c2c1 [Compound 73, tert-butyl 4-(7-methoxy-4-nitro-1-oxo-1,2-dihydroisoquinolin-3-yl)phenyl carbonate]	— ((−) signifies that the molecule induces little or no tubulin assembly inhibition in vitro: 0+ or − −5% of the DMSO control.)	***		10 to 24 µM	1 to 25 µM			
COc1ccc(/C=C\c2cc(OC)c(OC)c(OC)c2)cc1O [combretastatin A-4, reference compound]							does not inhibit PP1 activity	
O=c1c2ccccc2cc(-c2ccccc2)n1Cc1ccc(O)cc1 [Compound 74, 2-(p-hydroxybenzyl)-3penylisoquinolin-1(2H)-one]		—		10 to 24 µM	25 to 50 µM			*
